US20220313803A1, “NOVEL NEOANTIGENS AND CANCER IMMUNOTHERAPY USING SAME” (BRIGHTPATH BIOTHERAPEUTICS CO., LTD., priority 2019, published 2022)
Entries after “also recorded” stand apart in the source; their conditions may differ. Each block holds one molecule with its values, some of them ahead of it.

Key:
[1] = tested on: antigen-specific T cells (CD4 or CD8-positive) from healthy human PBMCs; test: Immunogenicity evaluation of peptides with healthy human PBMCs (ICS for IFNy or IFNy ELISA); format: cell-based; settings: for activation of CD8-positive cells: donor No. 9; for immunogenicity as HLA Class I / Class II epitope / activation of CD4-positive T cells: healthy donor PBMCs; for activation of CD4-positive T cells: CD4-positive IFNy-producing cells; for samples in which the peptide had immunogenicity (positive/tested): single peptide re-analysis, 24 donors (Mix-1, Mix-2 peptides) or 25 donors (Mix-3 peptides)
From the text: Peripheral blood mononuclear cells (PBMCs) that were those of a lot containing HLA-A*24:02 or A*02:01 of purified normal human PBMCs (Precision Bioservice, 93000-10M or -50M), were selected and used. Alternatively, PBMCs were separated and collected by density gradient centrifugation from peripheral blood provided by 10 healthy volunteers (including those of HLA-A*24:02 or A*02:01) recruited at the Kanagawa Cancer Center Research Institute, and were used in the experiment.
Healthy human PBMCs of 2×10^6 cells were cultured (a CO2 incubator; 5% CO2 and at 37° C.) for 7 days in the presence of the peptides to be evaluated (2, 2.5 or 5 μg/mL, and in the case of Mix (described later), 2 lag/mL for each peptide), and then the cells were collected. AIM-V medium (Thermo Fisher Scientific K.K., 12055-091) supplemented with a 5% human serum (NIP Biomedicals, 2931949) was used as medium.
On the other hand, the PBMCs of the same lot were cultured in the presence of a GM-CSF and IL-4 for 7 days to differentiate into dendritic cells (DC), and a part thereof was cryopreserved.
Cell stimulation for evaluation of immunogenicity was carried out according to the method outlined in FIG. 2. Namely, the PBMCs stimulated with the peptide for 7 days were collected and co-cultured in the presence of DC (1×10^5 cells) treated with a mitomycin C (60 μg/mL, Kyowa Kirin Co., Ltd.), each peptide (2, 2.5 or 5 μg/mL), and 0.1 KE/mL of OK-432 (for injection of Picibanil, Chugai Pharmaceutical Co., Ltd.). An IL-2 (PeproTech, Inc., AF-200-02) was added at 10 IU/mL on the second day of the co-culture (Day 9 with the stimulation start date as Day 0), and the cells were further cultured for 5 days.
After culturing (Day 14), the cells were collected, the cryopreserved DC was thawed, and the cells were co-cultured again in the presence of the same concentration of each peptide for 7 days. The cells cultured for a total of 21 days were collected, and activation of antigen-specific T cells was confirmed by intracellular cytokine staining (ICS) or IFNy ELISA. For evaluation, the PBMCs for 24 donors (of Mix-1 and Mix-2) or the PBMCs for 25 donors (of Mix-3) (the donor numbers 1 to 10 are derived from healthy volunteers, and the donor numbers with 3 digits were purchased from Precision Bioservice, Inc.), were used. In this study, 10 kinds of peptides designed from the sequences containing the driver mutations in Example 1 and synthesized (SEQ ID NO: 1 to SEQ ID NO: 10) were mixed to the following mixtures containing 3 to 4 kinds of peptides (see FIG. 4): Mix-1: a mixture of KRA S-G 1 2C (SEQ ID NO: 3), NRAS-Q61K (SEQ ID NO: 6) and PIK3CA-H1047R (SEQ ID NO: 8); Mix-2: a mixture of KRAS-G12V (SEQ ID NO: 2), NRAS-Q61R (SEQ ID NO: 7), and PIK3CA-E545K (SEQ ID NO: 9); and Mix-3: a mixture of KRAS-G12D (SEQ ID NO: 1), KRAS-G12R (SEQ ID NO: 4), KRAS-G13D (SEQ ID NO: 5), and C-Kit-D816V (SEQ ID NO: 10). First, activation of antigen-specific T cells by stimulation with each Mix was observed, and when the activation was observed, the T cells were stimulated in the presence of each peptide alone to identify a peptide having immunogenicity. The presence or absence of activation was determined by the ICS (IFNy) or ELISA (IFNy in the culture supernatant).
Intracellular cytokine staining (ICS) was carried out according to the following procedure. The cells (5.0×10^4 cells) cultured for 21 days in the presence of the peptide and collected in the present Example, and antigen-presenting cells (APC) (autologous DC; 5×10^3 cells) were placed in a 96-well U bottom plate and cultured for 2 hours in the presence of the peptide. 10 μg/mL of Brefeldin A (Merck KGaA, B7651) was added to the cells to culture for 20 to 24 hours. […]

[2] = tested on: PIK3CA-H1047R-specific TCR-T cells; test: Antigen specificity of TCR-T cells (IFNy-producing cells by flow cytometer); format: cell-based, human; settings: TCR-T cells co-cultured with APC (donor No. 9-derived EB virus immortalized B cells) in the presence of the peptide, 20 to 24 hours
Method: Via a retrovirus vector (donated by Toyama University) to which the TCRa chain gene (SEQ ID NO: 29) and TCRI3 chain gene (SEQ ID NO: 30) identified in Example 5 derived from the donor No. 9-derived PIK3CA-H1047R-specific T cells were inserted, a cell line (TCR-T cell) expressing the TCR gene was prepared by introducing the PIK3CA-H1047R-specific TCR gene into T cells derived from healthy subjects. The prepared TCR-T cells (TCR gene-expressing cell line) (5.0×10^4 cells as T cells) and APC (donor No. 9-derived EB virus immortalized B cells; 5×10^3 cells) were cultured in a 96 well U bottom plate for 20 to 24 hours in the presence of the antigen peptide (PIK3CA-H1047R (SEQ ID NO: 8)) or the wild-type peptide thereof ([…]), then the cultured cells were collected, and antigen specificity was confirmed by detecting IFNy-producing cells with a flow cytometer.

[3] = biological target: T1, PIK3CA H1047R peptide on HLA-DRB1*04:05 (human); test: cytokine release
T1 peptide: LEYFMKQMNDARHGG

[4] = biological target: T2, PIK3CA wild-type peptide on HLA-DRB1*04:05 (human); test: cytokine release
T2 peptide: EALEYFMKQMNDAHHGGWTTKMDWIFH

[5] = biological target: T3, PIK3CA H1047R peptide on HLA-DRB1*04:05 (human); test: cytokine release
T3 peptide: MKQMNDARHGGWTT

[6] = biological target: T4, PIK3CA H1047R peptide on HLA-DRB1*04:05 (human); test: cytokine release
T4 peptide: FMKQMNDARHGGWT

[7] = biological target: T5, PIK3CA H1047R peptide on HLA-DRB1*04:05 (human); test: cytokine release
T5 peptide: EYFMKQMNDARHGGW

[8] = biological target: T6, PIK3CA H1047R peptide on HLA-DRB1*04:05 (human); test: cytokine release
T6 peptide: ALEYFMKQMNDARHG

[9] = biological target: T7, PIK3CA H1047R peptide on HLA-DRB1*04:05 (human); test: cytokine release
T7 peptide: YFMKQMNDARHGGW

[10] = biological target: T8, PIK3CA H1047R peptide on HLA-DRB1*04:05 (human); test: cytokine release
T8 peptide: EALEYFMKQMNDARH

Molecule: C-Kit-D816V: 27-mer C-Kit D816V neoantigen peptide GRITKICDFGLAR[V]IKNDSNYVVKGNA (GRITKICDFGLARVIKNDSNYVVKGNA; listed as Homo sapiens)
activation of CD8-positive cells [1]: activation of CD8-positive cells was observed in 1 donor
immunogenicity as HLA Class I / Class II epitope [1]: immunogenicity as both the HLA Class I epitope and the Class II epitope
activation of CD4-positive T cells [1]: those derived from 4 donors were CD4 positive; also recorded: activation of CD4-positive T cells was observed; also recorded: particularly strong ability to activate CD4-positive helper T cells
samples in which the peptide had immunogenicity (positive/tested) [1]: 5/25

Molecule: NRAS-Q61R: 27-mer NRAS Q61R neoantigen peptide GETCLLDILDTAG[R]EEYSAMRDQYMRT (GETCLLDILDTAGREEYSAMRDQYMRT; listed as Homo sapiens)
activation of CD4-positive T cells [1]: they were all CD4-positive T cells; also recorded: activation of CD4-positive T cells was observed; also recorded: particularly strong ability to activate CD4-positive helper T cells
samples in which the peptide had immunogenicity (positive/tested) [1]: 3/24

Molecule: KRAS-G12D: 27-mer KRAS G12D neoantigen peptide MTEYKLVVVGA[D]GVGKSALTIQLIQNH
activation of CD4-positive T cells [1]: activation of CD4-positive T cells was observed; also recorded: particularly strong ability to activate CD4-positive helper T cells
frequency of samples in which the peptide had immunogenicity ([1]; samples derived from healthy people, single peptide analysis): 4.0%
samples in which the peptide had immunogenicity (positive/tested) [1]: 1/25

Molecule: EALEYFMKQMNDAHHGGWTTKMDWIFH [WT1, wild-type peptide of PIK3CA-H1047R, reference compound]
frequency of IFNy-producing cells [2]: less than 1%

Molecule: PIK3CA-H1047R: 27-mer PIK3CA H1047R neoantigen peptide EALEYFMKQMNDA[R]HGGWTTKMDWIFH (EALEYFMKQMNDARHGGWTTKMDWIFH; listed as Homo sapiens)
frequency of IFNy-producing cells [2]: 30.4%±0.9%
activation of CD8-positive cells [1]: activation of CD8-positive cells was also observed
immunogenicity as HLA Class I / Class II epitope [1]: immunogenicity as both the HLA Class I epitope and the Class II epitope
activation of CD4-positive T cells [1]: All antigen-specific T cells activated in the 4 donors were CD4 positive; also recorded: activation of CD4-positive T cells was observed; also recorded: particularly strong ability to activate CD4-positive helper T cells
samples in which the peptide had immunogenicity (positive/tested) [1]: 4/24

binding result [3]: recognises
binding result [4]: no recognition
binding result [5]: recognises
binding result [6]: recognises
binding result [7]: recognises
binding result [8]: recognises
binding result [9]: recognises
binding result [10]: recognises
B1: TCR of the donor No. 9-derived PIK3CA-H1047R-specific T cells (SEQ ID NOs 29 and 30) (TCR, V domains shown)
Valpha: QQVKQSPQSLIVQKGGISIINCAYENTAFEYFPWYQQFPGKGPALLIAIRPDVSEKKEGRFTISFNKSAKQFSLHIMDSQPGDSATYFCAASGSYNNNDMRFGAGTRLTVKP
Vbeta: NAGVTQTPKFQVLKTGQSMTLQCAQDMNHEYMSWYRQDPGMGLRLIHYSVGAGITDQGEVPNGYNVSRSTTEDFPLRLLSAAPSQTSVYFCASSYASPGTGYSGELFFGEGSRLTVL
